According to US9517993B2, “Antagonists of the toll-like receptor 1/2 complex” (THE REGENTS OF THE UNIVERSITY OF COLORADO, a body corporate, priority 2012, dated 2016):

Tests used:
[1] = system: TNF-α and IL-1β production; assay: Cytokine-specific ELISA in Pam3CSK4-activated RAW 264.7 cells; type: cell-based, mouse
Description: RAW 264.7 cells were planted in 6-well plates at 1,000,000 cells per well with 3 mL of medium (RPMI 1640 medium, supplemented with 10% FBS, penicillin (100 U/mL) and streptomycin ([…])) and grown for 24 h at 37° C. in a 5% CO2 humidified incubator. After 24 h, non-adherent cells and media were removed and replaced with fresh RPMI 1640 medium (3 mL/well). Two wells of adherent macrophages were treated with Pam3CSK4 (Invivogen, 300 ng/mL) as the positive control, two wells was treated with 8 μM compound 17, and the other two wells ware treated with 8 μM compound DMSO. Another 6 well plate were treated with Pam3CSK4 (Invivogen, 300 ng/mL) and different concentration of 17. Plates were then incubated for an additional 24 h. […] Approximately 400 μL of supernatant were collected into new tubes, frozen at −80° C. until ready for cytokine measurement. The production of the cytokine interleukin-1β (IL-1β) and TNF-α was quantified with enzyme-linked immunosorbent assays (ELISA) using cytokine-specific capture antibodies, biotinylated monoclonal detection antibodies, and recombinant human cytokine standards according to commercially available ELISA kits from R&D Systems. The cytokine level in each sample was determined in duplicate.

TLR1/2 = TLR1/2 (Homo sapiens, UniProt O60603+Q15399); assay: Fluorescence anisotropy competition assay with rhodamine-labeled Pam3CSK4; type: binding; parameters: His; TLR2 made in house; host or cells: baculovirus; Sf-9 for virus, High Five insect cells for expression (TLR2)
Chain of TLR1/2 (Q15399 25-580 limits assumed): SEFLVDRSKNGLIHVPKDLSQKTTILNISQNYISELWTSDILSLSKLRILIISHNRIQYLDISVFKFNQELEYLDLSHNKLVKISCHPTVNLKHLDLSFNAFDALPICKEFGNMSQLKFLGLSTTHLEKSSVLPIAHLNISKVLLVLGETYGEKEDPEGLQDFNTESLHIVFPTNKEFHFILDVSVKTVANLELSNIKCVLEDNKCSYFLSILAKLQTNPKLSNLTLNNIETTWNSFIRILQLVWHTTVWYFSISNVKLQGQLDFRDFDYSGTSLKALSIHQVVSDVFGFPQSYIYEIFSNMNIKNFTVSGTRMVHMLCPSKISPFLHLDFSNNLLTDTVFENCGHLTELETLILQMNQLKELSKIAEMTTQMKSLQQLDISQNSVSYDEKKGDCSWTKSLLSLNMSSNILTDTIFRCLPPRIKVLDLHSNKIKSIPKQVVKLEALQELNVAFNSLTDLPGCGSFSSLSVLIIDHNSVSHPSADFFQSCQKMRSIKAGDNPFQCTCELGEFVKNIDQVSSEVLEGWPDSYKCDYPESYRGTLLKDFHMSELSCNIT
Chain of TLR1/2 (O60603 21-588 limits assumed): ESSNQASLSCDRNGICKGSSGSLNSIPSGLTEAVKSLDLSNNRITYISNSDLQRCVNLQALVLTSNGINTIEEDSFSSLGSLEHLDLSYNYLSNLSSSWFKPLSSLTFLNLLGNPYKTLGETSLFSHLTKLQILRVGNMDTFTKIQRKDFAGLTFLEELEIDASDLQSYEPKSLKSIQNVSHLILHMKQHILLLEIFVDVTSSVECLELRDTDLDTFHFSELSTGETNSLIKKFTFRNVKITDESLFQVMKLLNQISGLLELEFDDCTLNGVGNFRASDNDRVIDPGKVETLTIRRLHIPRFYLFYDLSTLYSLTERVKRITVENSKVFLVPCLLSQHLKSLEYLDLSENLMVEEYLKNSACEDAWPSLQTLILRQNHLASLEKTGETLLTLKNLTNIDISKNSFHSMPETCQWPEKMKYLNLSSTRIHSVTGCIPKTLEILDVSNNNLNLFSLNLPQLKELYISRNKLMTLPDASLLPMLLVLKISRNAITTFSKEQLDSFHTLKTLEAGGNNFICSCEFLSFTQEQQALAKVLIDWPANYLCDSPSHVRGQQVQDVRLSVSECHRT
From the text: The TLR2 protein was expressed in the baculovirus insect cell expression system using the methods described by Kuroki et al. See Iwaki et al., The extracellular Toll-like receptor 2 domain directly binds peptidoglycan derived from Staphylococcus aureus, J. Biol Chem (2002), 277:24315-20, which is herein incorporated by reference in its entirety. The activity of the TLR2 protein was validated by the fluorescence anisotropy assay. […] Good fitting (R2>0.98) inferred that compound 17 and Pam3CSK4 compete for the same binding site on the TLR1/2 dimeric surface.
In 500 μL Tris buffer (pH=7.2) add 10 μL, (1 ng/mL) rhodamine-labeled Pam3CSK4, test the fluorescence anisotropy at excitation of 549 nm and emission of 566 nm (Horiba Fluorolog 3). And 5 μL (20 μM) TLR1 (R &D) and 5 μL, (20 μM) TLR2 was added into the above buffer, then retest the anisotropy. Following, compound 17 or compound 6 was added in the buffer from the concentration of 0 to 6 μM, and the fluorescence anisotropy was tested in the corresponding concentration.
Fluorescence polarization experiments were performed at 25° C. using a Horiba Fluorolog-3 fluorometer. For direct binding measurements, serial dilutions of TLR1 (R&D, MN) and TLR2 were made in Tris buffer (pH=7.2), and an aliquot (10 μL) of 1 ng/mL rhodamine labeled Pam3CSK4, was added to a total volume of 500 μL. The competition binding solution was incubated for 30 minutes at 25° C. Serial dilutions of compound 17 or compound 6 were incubated with 20 μM TLR1, 20 μM TLR2 and rhodamine-labeled Pam3CSK4 for 30 min at room temperature.
Regression analysis was carried out using Origin 7.5 (OriginLab) ligand binding macro module. […] Equation (1): y=min+(max−min)/(1+10^x-logIC50)(total binding, x=log concentration of and rhodamine-labeled Pam3CSK4, min=nonspecific binding, max=maximum binding in absence of ligand). Equation (2): Ki=IC50/(1+[L]/Kd) ([L]=concentration of rhodamine-labeled Pam3CSK4).

RAW 264.7 cells = assay: MTT cytotoxicity assay; type: cell-based, mouse; settings: for cytotoxicity: at the active dose, RAW 264.7 cells, MTT
Description: MTT Cytotoxicity Assay. In a 96-well plate 10,000 cells in 200 μL media (RPMI 1640 medium, supplemented with 10% FBS, penicillin (100 U/mL) and streptomycin ([…])) per well. Eight wells were left empty for blank controls. The plates were incubated (37° C., 5% CO2) overnight to allow the cells to attach to the wells. Add 20 ul (5 mg/mL) MTT solution to each well. Place on a shaking table, 150 rpm for 5 minutes, to thoroughly mix the MTT into the media. Incubate (37° C., 5% CO2) for 4 hours to allow the MTT to be metabolized. Dump off the media. Dry plate on paper towels to remove residue. Resuspend formazan (MTT metabolic product) in 200 ul DMSO. Place on a shaking table, 150 rpm for 5 minutes, to thoroughly mix the formazan into the solvent. When a clear difference could be seen by naked eye, results were read by spectrophotometer at 560 nm. Optical density should be directly correlated with cell quantity. Cytotoxicity (%) was determined using the following formula: Cytotoxicity (%) (1−[Compounds (OD560)−Background(OD560)]/[Control (OD560)−Background (OD560)])×100.

SMILES: CCCCCCOC(=O)c1cc(O)c(=O)c2c(O)c(O)c(OC)cc2c1 [compound 17, Hexyl 3,4,6-trihydroxy-2-methoxy-5-oxo-5H-benzo[7]annulene-8-carboxylate]
- TNF-α inhibition (ELISA) ([1]; RAW 264.7, 300 ng/mL Pam3CSK4): TNF-α inhibition
- IL-1β production (ELISA) ([1]; RAW 264.7, activated by 300 ng/mL Pam3CSK4): inhibited
- anisotropy of rhodamine-labeled Pam3CSK4 with TLR1/2 (TLR1/2; compound concentration increased to 6 μM): decreased the anisotropy to background levels
- competition with Pam3CSK4 for TLR1/2 (in words) (TLR1/2; fluorescence anisotropy): competitive binding
- Ki (TLR1/2; rhodamine-labeled Pam3CSK4, one-site competition model, read-out: inhibition constant (Ki), competition with Pam3CSK4 for binding to TLR1/2): 410 nM
- cytotoxicity (RAW 264.7 cells): no significant cytotoxicity
- cytotoxicity (RAW 264.7 cells; listed as CU-CPT22): low toxicity
- toxicity by MTT assay (RAW 264.7 cells; under 8 μM): no significant toxicity issues
